Measurements taken from US7968093B2, “Fully human antibodies directed against the human insulin-like growth factor-1 receptor” (ImClone LLC, priority 2003, dated 2011).

Experiments:
[1] = tested on: Akt; assay: IGF-I mediated Akt phosphorylation, western blot; type: cell-based, human; conditions: MCF7 cells; IGF-I stimulated; A12 even at 10 nM
Description: To visualize the inhibitory effect of the anti-IGF-IR antibodies on IGF-I signaling, receptor auto-phosphorylation and downstream effector molecule phosphorylation analysis was performed in the presence or absence of antibody A12 or 2F8. The MCF7 human breast cancer cell line was selected for use due to its high IGF-IR density. Cells were plated into 10 cm or 6 well culture dishes and grown to 70-80% confluence. The monolayers were then washed twice in PBS and cultured overnight in serum free defined medium. Anti-IGF-IR antibody was then added in fresh serum-free media (100 nM-10 nM) and incubated cells 30 minutes before addition of ligand (10 nM). Cells were incubated with ligand for 10 minutes, then placed on ice and washed with ice-cold PBS. […] Tyrosine phosphorylated protein was detected on the blot using an anti-p-tyrosine antibody (Cell Signaling #9411) and an anti-mouse-HRP secondary antibody. IGF-IR was detected with monoclonal antibody C-20 (Santa Cruz). For Akt phosphorylation, phospho-Akt was detected with antibody #559029 and total Akt with #559028 (BD Pharmingen). For MAPK phosphorylation, phospho-p44/42 was detected with #9101 and total p44/42 with #9102 (Cell Signaling Tech.). […]

[2] = tested on: BxPC-3 human pancreatic carcinoma cells; assay: BxPC-3 xenograft, A12 with CPT-11 or gemcitabine; type: in vivo, athymic nu/nu mice
Description: Athymic nu/nu mice were injected subcutaneously with 2×10^6 BxPC-3 human pancreatic carcinoma cells mixed 1:1 with Matrigel. […] All treatments were administered by intraperitoneal injection. Tumor measurements were recorded twice weekly using the formula Volume=(π/6)l×w^2.
At day 18 three animals per group were sacrificed and the tumors resected for midpoint histological evaluation. Treatment and tumor measurements continued on the remaining animals until day 44 with the exception of the TBS group. […] At termination of the study final tumor measurements were recorded, animals sacrificed, and four per group had tumors resected for endpoint histological evaluation.

[3] = target: IGF-IR (Homo sapiens, UniProt P08069); assay: Blocking of 125I-IGF-I binding to immobilized soluble IGF-IR; design: recombinant extracellular portion of human IGF-IR was used to screen
Description: Forty 40 pM of ^125I-IGF-I was then added and the plates incubated an additional 90 minutes. […] Affinity was determined by BIAcore analysis according to manufacturer's specifications (Pharmacia BIACORE 3000). Soluble IGF-IR was immobilized on the sensor chips and antibody binding kinetics determined. […] The activity of A12 remained the same, irrespective of whether the light chain was engineered with a human lambda or kappa class constant region. Antibody A12 engineered with a lambda class light chain was utilized in all subsequent procedures.

[4] = target: T1, IGF-IR on MCF7 cells (Homo sapiens, UniProt P08069); assay: Internalization of 125I-A12 after binding to IGF-IR; type: cell-based; conditions: 37° C., 30-180 minutes
T1 construct: endogenous in cells
Description: Antibody A12 was radio-iodinated with ^125iodine using IODO-beads (Pierce) according to manufacturer's instructions. MCF7 human breast cancer cells were plated into 6-well plates and cultured overnight to 50% confluence. One microgram of ^125I-A12 was added to each well and incubated at 37° C. or kept on ice at 4° C. Plates were incubated for 30 minutes, 90 minutes, or 180 minutes and each time point performed in triplicate. The culture at 4° C. was held for 180 minutes. At each time point, wells were washed 1× w/PBS, then stripped for 5 minutes with 100 mM glycine-HCl, 2M urea, pH 2.5. The stripped material, representing membrane bound antibody was kept on ice for counting. Wells were then washed 3 times with PBS and cells solubilized with 1N NaOH/1% TritonX100. The solubilized fraction represented the internalized antibody. Stripped and solubilized fractions were then read on a gamma counter and plotted with standard deviation.

[5] = target: T2, IGF-IR in HT-29 cells and BxPC-3 cells (Homo sapiens, UniProt P08069); assay: Total cellular IGF-IR after treatment; type: cell-based; conditions: HT-29 and BxPC-3 cells; A12 after 3-6 hours
T2 construct: endogenous in cells; HT-29; BxPC-3; HEL

[6] = target: T3, insulin receptor (IR) (Homo sapiens, UniProt P06213); assay: Blocking of radiolabeled insulin binding to ZR-75I cells; conditions: ZR-75I breast cancer cells; antibody up to 200 nM
T3 construct: endogenous in cells; host or cells: ZR-75I human breast cancer cells

For “A12: fully human IgG1 anti-IGF-IR antibody, lambda light chain; VH SEQ ID NO:2, VL SEQ ID NO:10; affinity matured from 2F8”, the “inhibition of Akt phosphorylation” value [1] was “significantly inhibited Akt phosphorylation”, the “animals with partial tumor regressions” value ([2]; after five weeks of treatment) was 2 of eight and the “Regressions (individual tumor volumes < day 1 of treatment)” value ([2]; day 19, animals regressing/animals in group) was 2/12. For the same substance, the T/C % ([2]; day 19, ip, A12 1 mg 3 times per week, irinotecan 1 mg or gemcitabine 2.5 mg every 7 days) was 57%, the “Regressions (individual tumor volumes < day 1 of treatment)” value ([2]; day 23) was 2/9 and the T/C % ([2]; day 23, same regimens) was 49%. The “Regressions (individual tumor volumes < day 1 of treatment)” value ([2]; day 26) was 2/9, the T/C % ([2]; day 26, same regimens) was 40% and the “Regressions (individual tumor volumes < day 1 of treatment)” value ([2]; day 30) was 2/8. The T/C % ([2]; day 30, same regimens) was 40%, the “Regressions (individual tumor volumes < day 1 of treatment)” value ([2]; day 32) was 2/8 and the T/C % ([2]; day 32, same regimens) was 39%. The “Regressions (individual tumor volumes < day 1 of treatment)” value ([2]; day 37) was 2/8, the “Regressions (individual tumor volumes < day 1 of treatment)” value ([2]; day 41) was 2/8 and the “Regressions (individual tumor volumes < day 1 of treatment)” value ([2]; day 44) was 2/8. For the same substance, the “inhibition of radiolabeled IGF-I binding compared with cold ligand” value ([3]; FIG. 15) was “to a greater extent than competition with cold ligand”, the “increase in blocking activity of ligand for immobilized receptor, A12 versus 2F8” value ([3]; full IgG) was “at least a three-fold increase” and the “internalization of labeled antibody” value [4] was “rapidly internalized”. The “effect on total cellular IGF-IR” value [5] was “severe depletion of IGF-IR levels” and the “blocking of insulin binding” value [6] was “neither 2F8 nor the high affinity A12 antibody blocked insulin binding”.
